What was measured:
Assay type in all cases: in vivo
[1] = test system: Botrytis cinerea; assay: Test E: tomato Botrytis, preventive spray on tomato seedlings; settings: 50 ppm, 100 = 100% disease control, 0 = no control
In short: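 Preventive test: spore inoculation one day after run-off spraying of compound suspension (3% acetone, acetone/water 50/50, 250 ppm PEG400). Incubation 20 °C saturated humidity for 48 h, followed by 3 days at 24 °C growth chamber; disease control scored visually, 100 = full control.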

[2] = test system: Phakopsora pachyrhizi; assay: Test D: Asian soybean rust, preventive spray on soybean seedlings; settings: 50 ppm, 100 = 100% disease control, 0 = no control
In short: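 Soybean seedlings sprayed to run-off with compound suspension (ppm, in 50/50 acetone/water with 250 ppm PEG400), inoculated next day with P. pachyrhizi spores, held 24 h saturated at 22°C then 8 days at 22°C. Visual rating 0-100% disease control relative to controls.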

[3] = test system: Septoria tritici; assay: Test A: wheat leaf blotch, preventive spray on wheat seedlings; settings: 50 ppm, 100 = 100% disease control, 0 = no control relative to controls
In short: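 Preventive test: seedlings sprayed to run-off one day before Septoria tritici spore inoculation, with ppm doses in acetone/water containing 250 ppm PEG400. After 48 h at 24 °C in saturated air and 17 days at 20 °C, plants were scored 0–100 for disease control versus untreated controls.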

[4] = test system: Alternaria solani; assay: Test F: tomato early blight, preventive spray on tomato seedlings; settings: 50 ppm, 100 = 100% disease control, 0 = no control
In short: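 Preventive test: one day after seedlings were sprayed to run-off with ppm-level suspensions (acetone/water 50/50, 250 ppm PEG400), A. solani spore inoculation followed. Incubation was 48 h at 27° C in saturated air plus 3 days at 20° C; disease control was scored visually versus controls (100 = full control).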

[5] = test system: Puccinia recondita f. sp. tritici; assay: Test B: wheat leaf rust, preventive spray on wheat seedlings; settings: 50 ppm, 100 = 100% disease control, 0 = no control relative to controls
In short: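 Wheat seedlings got a run-off spray (ppm, acetone/water 50/50, 250 ppm PEG400) and one day later a spore inoculum. After 24 h at 20° C. in saturated air and 7 days at 20° C., disease was scored as % control relative to controls (100 = full control).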

[6] = test system: Blumeria graminis f. sp. tritici; assay: Test C: wheat powdery mildew, preventive spray on wheat seedlings; settings: 50 ppm, rated after 8 days, 100 = 100% disease control, 0 = no control
In short: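 Wheat seedlings got a run-off spray of test suspension (ppm in acetone/water 50/50, 250 ppm PEG400, acetone 3% of volume), then spore-dust inoculation with wheat powdery mildew one day later. After 8 days' growth-chamber incubation at 20° C, disease control scored visually on a 0–100 scale versus untreated controls.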

Cc1nn(C)c(Nc2c(F)cccc2[N+](=O)[O-])c1-c1c(F)cc(F)cc1Br [Compound 1, 4-(2-bromo-4,6-difluorophenyl)-N-(2-fluoro-6-nitrophenyl)-1,3-dimethyl-1H-pyrazol-5-amine] showed a pest or weed control at 50 ppm ([1]; Botrytis cinerea, read-out: Test E disease control rating (tomato Botrytis)) of 100%, a pest or weed control at 50 ppm ([2]; Phakopsora pachyrhizi, read-out: Test D disease control rating (Asian soybean rust)) of 84% and a pest or weed control at 50 ppm ([3]; Zymoseptoria tritici, read-out: Test A disease control rating (wheat leaf blotch)) of 100%. The pest or weed control at 50 ppm ([4]; Alternaria solani, read-out: Test F disease control rating (tomato early blight)) was 99%, the pest or weed control at 50 ppm ([5]; read-out: Test B disease control rating (wheat leaf rust)) was 100% and the pest or weed control at 50 ppm ([6]; Blumeria graminis, 192 h, read-out: Test C disease control rating (wheat powdery mildew)) was 100%.

With Cc1nn(C)c(Nc2ccc(Cl)cc2[N+](=O)[O-])c1-c1ccc(F)cc1Cl [Compound 92] the “Test E disease control rating (tomato Botrytis)” value (“Test E disease control rating” for short) [1] was 100%, the “Test D disease control rating (Asian soybean rust)” value (shortened to “Test D disease control rating”) [2] was 0% and the “Test A disease control rating (wheat leaf blotch)” value (shortened to “Test A disease control rating”) [3] was 100%. For the same compound, the “Test F disease control rating (tomato early blight)” value (from here on “Test F disease control rating”) [4] was 79%, the “Test B disease control rating (wheat leaf rust)” value (shortened to “Test B disease control rating”) [5] was 96% and the “Test C disease control rating (wheat powdery mildew)” value (“Test C disease control rating” below) [6] was 89%.

For CCc1nn(C)c(Nc2c(Cl)cc(Br)cc2[N+](=O)[O-])c1-c1ccc(F)cc1Cl [Compound 128], the “Test E disease control rating” value [1] was 99%, the “Test D disease control rating” value [2] was 31% and the “Test A disease control rating” value [3] was 100%. The “Test F disease control rating” value [4] was 33%, the “Test B disease control rating” value [5] was 98% and the “Test C disease control rating” value [6] was 96%.

In the case of CCc1nn(C)c(Nc2c(Cl)cc(C)cc2[N+](=O)[O-])c1-c1ccc(F)cc1F [Compound 16], the “Test E disease control rating” value [1] is reported as 99%, the “Test D disease control rating” value [2] is reported as 50% and the “Test A disease control rating” value [3] is reported as 100%. For the same compound, the “Test F disease control rating” value [4] was 0%, the “Test B disease control rating” value [5] was 99% and the “Test C disease control rating” value [6] was 98%.

For Cc1nn(C)c(Nc2c(Cl)cccc2[N+](=O)[O-])c1-c1c(F)cc(F)cc1Br [Compound 163], the “Test E disease control rating” value [1] was 88%, the “Test D disease control rating” value [2] was 78% and the “Test A disease control rating” value [3] was 99%. The “Test F disease control rating” value [4] was 76%, the “Test B disease control rating” value [5] was 100% and the “Test C disease control rating” value [6] was 98%.

With Cc1nn(C)c(Nc2ccccc2[N+](=O)[O-])c1-c1c(F)cc(Cl)cc1F [Compound 168] the “Test E disease control rating” value [1] was 99%, the “Test D disease control rating” value [2] was 0% and the “Test A disease control rating” value [3] was 100%. For the same compound, the “Test F disease control rating” value [4] was 40%, the “Test B disease control rating” value [5] was 74% and the “Test C disease control rating” value [6] was 97%.

With Cc1nn(C)c(Nc2c(F)cc(F)cc2[N+](=O)[O-])c1-c1ccc(C#N)cc1Cl [Compound 120] the “Test E disease control rating” value [1] was 100%, the “Test D disease control rating” value [2] was 44% and the “Test A disease control rating” value [3] was 100%. For the same compound, the “Test F disease control rating” value [4] was 99%, the “Test B disease control rating” value [5] was 100% and the “Test C disease control rating” value [6] was 89%.

For Cc1cc(Cl)c(Nc2c(-c3c(F)cccc3Cl)c(C)nn2C)c([N+](=O)[O-])c1 [Compound 24], the “Test E disease control rating” value [1] was 97%, the “Test D disease control rating” value [2] was 0% and the “Test A disease control rating” value [3] was 100%. The “Test F disease control rating” value [4] was 0%, the “Test B disease control rating” value [5] was 89% and the “Test C disease control rating” value [6] was 0%.

With Cc1nn(C)c(Nc2cc(F)c(F)cc2[N+](=O)[O-])c1-c1ccc(F)cc1Cl [Compound 32] the “Test E disease control rating” value [1] was 99%, the “Test D disease control rating” value [2] was 98% and the “Test A disease control rating” value [3] was 93%. The “Test F disease control rating” value [4] was 0%, the “Test B disease control rating” value [5] was 85% and the “Test C disease control rating” value [6] was 56%.

For C#CCOc1ccc(Nc2c(-c3ccc(F)cc3Cl)c(C)nn2C)c([N+](=O)[O-])c1 [Compound 5], the “Test E disease control rating” value [1] was 95%, the “Test D disease control rating” value [2] was 19% and the “Test A disease control rating” value [3] was 97%. The “Test F disease control rating” value [4] was 0%, the “Test B disease control rating” value [5] was 86% and the “Test C disease control rating” value [6] was 76%.

For Cc1ccc(Nc2c(-c3ccc(F)cc3Br)c(C)nn2C)c([N+](=O)[O-])c1 [Compound 90], the “Test E disease control rating” value [1] was 99%, the “Test D disease control rating” value [2] was 0% and the “Test A disease control rating” value [3] was 100%. For the same compound, the “Test F disease control rating” value [4] was 9%, the “Test B disease control rating” value [5] was 95% and the “Test C disease control rating” value [6] was 87%.

In the case of Cc1nn(C)c(Nc2cccc(Cl)c2[N+](=O)[O-])c1-c1c(F)cccc1F [Compound 99], the “Test E disease control rating” value [1] is reported as 24%, the “Test D disease control rating” value [2] is reported as 0% and the “Test A disease control rating” value [3] is reported as 99%. The “Test F disease control rating” value [4] was 0%, the “Test B disease control rating” value [5] was 0% and the “Test C disease control rating” value [6] was 0%.

With Cc1cc(Cl)c(Nc2c(-c3c(F)cccc3F)c(C)nn2C)c([N+](=O)[O-])c1 [Compound 100] the “Test E disease control rating” value [1] was 26%, the “Test D disease control rating” value [2] was 0% and the “Test A disease control rating” value [3] was 100%. The “Test F disease control rating” value [4] was 0%, the “Test B disease control rating” value [5] was 89% and the “Test C disease control rating” value [6] was 21%.

With COc1ccc(-c2c(C)nn(C)c2Nc2c(F)cccc2[N+](=O)[O-])c(C)c1 [Compound 48] the “Test E disease control rating” value [1] was 97%, the “Test D disease control rating” value [2] was 0% and the “Test A disease control rating” value [3] was 100%. The “Test F disease control rating” value [4] was 97%, the “Test B disease control rating” value [5] was 95% and the “Test C disease control rating” value [6] was 89%.

With CCc1nn(C)c(Nc2c(F)cccc2[N+](=O)[O-])c1-c1ccc(F)cc1F [Compound 46] the “Test E disease control rating” value [1] was 99%, the “Test D disease control rating” value [2] was 0% and the “Test A disease control rating” value [3] was 100%. The “Test F disease control rating” value [4] was 81%, the “Test B disease control rating” value [5] was 98% and the “Test C disease control rating” value [6] was 99%.

For Cc1nn(C)c(Nc2c(F)cc(Cl)cc2[N+](=O)[O-])c1-c1ccc(F)cc1Br [Compound 131], the “Test E disease control rating” value [1] was 99%, the “Test D disease control rating” value [2] was 80% and the “Test A disease control rating” value [3] was 100%. The “Test F disease control rating” value [4] was 100%, the “Test B disease control rating” value [5] was 100% and the “Test C disease control rating” value [6] was 99%.

Cc1nn(C)c(Nc2c(F)cccc2[N+](=O)[O-])c1-c1c(F)cccc1F [Compound 63] was tested, and the “Test E disease control rating” value [1] was 100%, the “Test D disease control rating” value [2] was 0% and the “Test A disease control rating” value [3] was 100%. The “Test F disease control rating” value [4] was 96%, the “Test B disease control rating” value [5] was 99% and the “Test C disease control rating” value [6] was 86%.

COc1ccc(-c2c(C)nn(C)c2Nc2c(F)cccc2[N+](=O)[O-])c(Cl)c1 [Compound 27] was tested, and the “Test E disease control rating” value [1] was 100%, the “Test D disease control rating” value [2] was 87% and the “Test A disease control rating” value [3] was 100%. The “Test F disease control rating” value [4] was 99%, the “Test B disease control rating” value [5] was 100% and the “Test C disease control rating” value [6] was 91%.

In the case of CCc1nn(C)c(Nc2ccc(C)cc2[N+](=O)[O-])c1-c1ccc(F)cc1F [Compound 175], the “Test E disease control rating” value [1] is reported as 88%, the “Test D disease control rating” value [2] is reported as 0% and the “Test A disease control rating” value [3] is reported as 100%. For the same compound, the “Test F disease control rating” value [4] was 0%, the “Test B disease control rating” value [5] was 86% and the “Test C disease control rating” value [6] was 79%.

For COc1cc(F)c(-c2c(C)nn(C)c2Nc2c(F)cccc2[N+](=O)[O-])c(F)c1 [Compound 70], the “Test E disease control rating” value [1] was 99%, the “Test D disease control rating” value [2] was 84% and the “Test A disease control rating” value [3] was 100%. The “Test F disease control rating” value [4] was 99%, the “Test B disease control rating” value [5] was 100% and the “Test C disease control rating” value [6] was 99%.

In the case of COc1cc(F)c(-c2c(C)nn(C)c2Nc2c(F)cc(Cl)cc2[N+](=O)[O-])c(F)c1 [Compound 86], the “Test E disease control rating” value [1] is reported as 96%, the “Test D disease control rating” value [2] is reported as 77% and the “Test A disease control rating” value [3] is reported as 100%. The “Test F disease control rating” value [4] was 99%, the “Test B disease control rating” value [5] was 100% and the “Test C disease control rating” value [6] was 98%.

From patent publication US12398107B2, “Fungicidal nitroanilino substituted pyrazoles” (FMC Corporation, priority 2018, dated 2025)
